Test results as given in patent publication US20200297760A1, “COMPOSITIONS AND METHODS FOR REDUCING IMMUNE RESPONSES AGAINST CHIMERIC ANTIGEN RECEPTORS” (Juno Therapeutics, Inc., priority 2015, published 2020).
No end group written: not given here.

Experiments:
[1] = tested on: PBMCs of subjects treated with CD19-specific CAR T cells; assay: ELISpot assay for specific immune response to individual CAR peptides; format: cell-based, human; details: PBMCs of patients with detected CAR-specific immune response after CD19 CAR T cell infusion
Description: Individual ELISpot assays were performed using an anti-cytokine capture antibody to assess the presence or absence of a specific immune response for each of these individual hits (see Berger et al. (2006); Berger et al. (2001); Riddell et al. (1996); and Berger et al. (2005), supra). Specific immune responses against peptides with sequences within the VH portion of the scFv of the CAR were detected in both patients assessed (including regions within the FR1, CDR1, and FR2 regions for one patient and within the FR3 for the other). […] These two overlapping 15-mer peptides had the amino acid sequences […] (SEQ ID NO: 8) and […] (SEQ ID NO: 9, also set forth in SEQ ID NO:165), respectively. In another study following administration with a different CAR having a murine scFv, CD28 transmembrane and costimulatory domains and a CD3 zeta domain, using similar methods, an immune response also was detected for one subject against a pool containing VH portions of an anti-CD19 scFv and for another subject in a pool containing junction portions.

HLA-A*02:01 = HLA-A*02:01 (Homo sapiens, UniProt P04439, D140Y/D185E/D98H/E176V/E277Q/G131W/G231S/I119V/I121R/I166T/I218V/L300P/L318F/N151K/N90K/P208A/P217A/Q86G/Q94H/R138H/R169H/T345S); assay: REVEAL Epitope Discovery System in vitro MHC-peptide binding assay; details: binding normalized to positive control peptide set at 100%, greater than 50 considered good or high affinity binding
Description: (§1) Actual binding affinities for certain HLA class I alleles (A*02:01, A*03:01, A*11:01, and B*08:01) were assessed in vitro for exemplary overlapping 9 amino acid peptide sequences within a portion of the 26 amino acid junction region spanning the CD28 and 4-1BB junction. Specifically, assessment was of a series of overlapping 9-mer peptides derived from the sequence […] (set forth in SEQ ID NO: 7), which contains a portion of the CD28 transmembrane domain and 4-1BB costimulatory domain spanning the junction between the domains (bond joining the two amino acids noted in underline). In addition, a series of overlapping 9-mer peptides of each of a number of different variants of this portion also were assessed, each variant containing a mutation or mutations in this region as described in Example 2.
(§2) The various 9-mer overlapping peptides were synthesized and their purity tested by MALDI-TOF Mass Spectrometry. The synthetic peptides were then incubated with recombinant MHC molecules to assess binding properties using the REVEAL Epitope Discovery System, which is a high-throughput binding assay that measures the degree to which each peptide is able to stabilize a ternary MHC-peptide complex (Prolmmune, Oxford, United Kingdom). Each peptide was separately tested for this ability with respect to each of the HLA class I alleles, normalized to the degree observed for a positive control (known T cell epitope for the relevant allele). The results are reported as a score, in which the binding was normalized to the positive control peptide set at 100%. In this analysis, a score of greater than 50 generally was considered to represent good or high affinity binding.

HLA-B*08:01 = HLA-B*08:01 (Homo sapiens, UniProt P01889, A93T/A95T/D138N/E176V/E187T/K202T/Q94N/R180D/S35A/V36M/Y33D/Y91F); assay: as above; details: binding normalized to positive control peptide set at 100%, >50 considered good or high affinity binding
Description: as §1, §2

HLA-A*11:01 = HLA-A*11:01 (Homo sapiens, UniProt P04439, A114D/D185E/E176A/F33Y/L180Q/S129P/T187R); assay: as above; details: binding normalized to positive control peptide set at 100%, >50 considered good or high affinity binding
Description: as §1, §2

HLA-A*03:01 = HLA-A*03:01 (Homo sapiens, UniProt P04439); assay: as above; details: REVEAL score, binding normalized to positive control peptide set at 100%; greater than 50 considered good or high affinity binding
Description: as §1, §2

| Compound | A*02:01 In Vitro Score (HLA-A*02:01) | B*08:01 In Vitro Score (HLA-B*08:01) | A*11:01 In Vitro Score (HLA-A*11:01) | A*03:01 In Vitro (HLA-A*03:01) | specific immune response against peptide (ELISpot) [1] |
| --- | --- | --- | --- | --- | --- |
| AFIIFWVKRGRKKLL |  |  |  |  | specific immune responses also were detected |
| CC(C)C[C@H](NC(=O)CNC(=O)[C@H](CCCNC(=N)N)NC(=O)[C@H](CCCCN)NC(=O)[C@@H](NC(=O)[C@H](Cc1c[nH]c2ccccc12)NC(=O)[C@@H](N)Cc1ccccc1)C(C)C)C(=O)N[C@@H](CCCCN)C(=O)N[C@@H](CCCCN)C(=O)O | 9.40 | 6.30 | 25.30 | 2.70 |  |
| IIFWVQRGS | 22.40 | 0.10 | 16.90 | 4.50 |  |
| AFIIFWVLR | 5.70 | 0.20 | 17.20 | 0.30 |  |
| IFWVLRGRK | 2.90 | 0.00 | 29.30 | 19.50 |  |
| WVLRGRKKL | 2.40 | 4.00 | 3.20 | 0.70 |  |
| AFIIFWVKR | 0.50 | 1.90 | 25.90 | 5.70 |  |
| IFWVKRGRK | 4.50 | 0.40 | 29.30 | 20.50 |  |
| CC[C@H](C)[C@H](N)C(=O)N[C@@H](Cc1ccccc1)C(=O)N[C@@H](Cc1c[nH]c2ccccc12)C(=O)N[C@H](C(=O)N[C@@H](CCCCN)C(=O)N[C@@H](CCCNC(=N)N)C(=O)NCC(=O)N[C@@H](CC(N)=O)C(=O)N[C@@H](CCCCN)C(=O)O)C(C)C | 3.50 | 0.10 | 45.90 | 8.00 |  |
| FIIFWVKRG | 10.10 | 0.10 | 0.40 | 1.40 |  |
| VAFIIFWVQ | 5.30 | 0.20 | 3.90 | 0.20 |  |
| FWVKRGRKKLLYIFK |  |  |  |  | specific immune responses also were detected |
| IFWVKRGAK | 13.80 | 2.20 | 69.70 | 22.00 |  |
| IIFWVQRGA | 95.30 | 0.20 | 56.50 | 2.70 |  |
| FWVKRGSKK | 1.90 | 0.10 | 5.60 | 5.90 |  |
| WVQRGAKKL | 3.00 | 11.40 | 3.80 | 2.00 |  |
| IFWVKRGSK | 2.40 | 1.20 | 47.90 | 10.40 |  |
| IFWVQRGNK | 16.10 | 0.10 | 67.50 | 23.20 |  |
| AFIIFWVHR | 0.30 | 0.30 | 34.90 | 0.30 |  |
| IIFWVHRGR | 4.70 | 0.20 | 77.50 | 30.10 |  |
| IFWVQRGAK | 11.70 | 0.20 | 61.30 | 17.00 |  |
| CC[C@H](C)[C@H](N)C(=O)N[C@@H](Cc1ccccc1)C(=O)N[C@@H](Cc1c[nH]c2ccccc12)C(=O)N[C@H](C(=O)N[C@@H](CCCCN)C(=O)N[C@@H](CCCNC(=N)N)C(=O)NCC(=O)N[C@@H](Cc1c[nH]cn1)C(=O)N[C@@H](CCCCN)C(=O)O)C(C)C | 2.20 | 3.20 | 30.90 | 9.00 |  |

Now from value to compound, other results behind:

| A*02:01 In Vitro Score (HLA-A*02:01) | B*08:01 In Vitro Score (HLA-B*08:01) | A*11:01 In Vitro Score (HLA-A*11:01) | A*03:01 In Vitro (HLA-A*03:01) | Compound | specific immune response against peptide (ELISpot) [1] |
| --- | --- | --- | --- | --- | --- |
| 8.40 | 0.40 | 35.20 | 2.80 | CC[C@H](C)[C@H](N)C(=O)N[C@H](C(=O)N[C@@H](Cc1ccccc1)C(=O)N[C@@H](Cc1c[nH]c2ccccc12)C(=O)N[C@H](C(=O)N[C@@H](CC(C)C)C(=O)N[C@@H](CCCNC(=N)N)C(=O)NCC(=O)N[C@@H](CCCNC(=N)N)C(=O)O)C(C)C)[C@@H](C)CC |  |
| 37.30 | 0.20 | 0.90 | 0.00 | FIIFWVHRG |  |
| 70.60 | 0.10 | 25.10 | 0.70 | VAFIIFWVS |  |
| 5.30 | 0.10 | 19.50 | 26.60 | IIFWVKRGH |  |
| 2.20 | 0.20 | 51.80 | 0.50 | AFIIFWVAR |  |
| 2.40 | 58.30 | 61.10 | 26.90 | IFWVKRGLK |  |
| 1.50 | 0.00 | 6.30 | 2.90 | FWVSRGRKK |  |
| 1.70 | 0.00 | 54.50 | 24.30 | IIFWVKRGR |  |
| 0.20 | 0.00 | 0.20 | 0.00 | VAFIIFWVL |  |
| 2.60 | 0.40 | 27.60 | 4.10 | FWVKRGHKK |  |
| 5.80 | 0.10 | 72.80 | 18.00 | IIFWVQRGR |  |
| 3.90 | 4.30 | 6.70 | 0.90 | WVKRGRKKS |  |
| 24.50 | 65.70 | 22.10 | 10.00 | WVKRGLKKL |  |
| 82.20 | 1.70 | 32.40 | 15.90 | IIFWVKRGL |  |
| 2.60 | 0.00 | 68.90 | 25.30 | IIFWVSRGR |  |
| 5.20 | 1.90 | 5.70 | 6.40 | FWVQRGRKK |  |
| 3.00 | 56.10 | 11.80 | 1.90 | WVKRGSKKL |  |
| 0.40 | 0.00 | 15.00 | 0.20 | AFIIFWVQR |  |
| 4.30 | 0.30 | 13.20 | 4.70 | FWVKRGAKK |  |
